Measured values from ChEMBL document CHEMBL1135012, “Reductively activated disulfide prodrugs of paclitaxel” (Bioorg Med Chem Lett, 2002).

What was measured:
[1] = Compound was evaluated for its cytotoxicity against L2987 lung carcinoma cells; type: functional, cell-based; settings: Homo sapiens
[2] = Dose required for the compound to elicit the Antitumor activity: No effective activity; type: functional
[3] = Compound along with dithiothreitol (DTT) was evaluated for its cytotoxicity against L2987 lung carcinoma cells; type: functional, cell-based; settings: Homo sapiens
[4] = The half-life period for the release of paclitaxel after cyclization was determined for the compound; type: ADME
[5] = Maximum Tolerated Dose required for the compound to regress the tumors for the Antitumor activity: No effective activity; type: functional
[6] = Percentage tumor cure rate in when treated with 125 mg/Kg dose in athymic nude mice; type: functional, Mus musculus

T1/2 [4] [min]	SMILES	IC50 [1] [µM]	Dose [2] [mg/kg]	IC50 [3] [nM]	Dose [5] [mg/kg]	Tumor cure [6] [%]
12	CC(=O)O[C@H]1C(=O)[C@@]2(C)[C@H]([C@H](OC(=O)c3ccccc3)[C@]3(O)C[C@H](OC(=O)[C@H](OC(=O)C(C)(C)CCSSC4OC(CO)C(O)C(O)C4O)C(NC(=O)c4ccccc4)c4ccccc4)C(C)=C1C3(C)C)[C@]1(OC(C)=O)CO[C@@H]1C[C@@H]2O (stereo partly drawn)	5.7	85	200		
25	CC(=O)O[C@H]1C(=O)[C@@]2(C)[C@H]([C@H](OC(=O)c3ccccc3)[C@]3(O)C[C@H](OC(=O)[C@H](OC(=O)C(C)(C)CCSSC[C@H](C)C(=O)N4CCC[C@@H]4C(=O)O)[C@@H](NC(=O)c4ccccc4)c4ccccc4)C(C)=C1C3(C)C)[C@]1(OC(C)=O)CO[C@@H]1C[C@@H]2O	130		2300		60

Further lines, the compound ahead of its results:

SMILES	T1/2 [4] [min]	IC50 [1] [µM]	Dose [2] [mg/kg]	IC50 [3] [nM]	Dose [5] [mg/kg]	Tumor cure [6] [%]
CC(=O)O[C@H]1C(=O)[C@@]2(C)[C@H]([C@H](OC(=O)c3ccccc3)[C@]3(O)C[C@H](OC(=O)[C@H](O)[C@@H](NC(=O)c4ccccc4)c4ccccc4)C(C)=C1C3(C)C)[C@]1(OC(C)=O)CO[C@@H]1C[C@@H]2O [PACLITAXEL]		0.2			30	
CC(=O)O[C@H]1C(=O)[C@@]2(C)[C@H]([C@H](OC(=O)c3ccccc3)[C@]3(O)C[C@H](OC(=O)[C@H](OC(=O)C(C)(C)CCSSCC(NC(=O)CCC(N)C(=O)O)C(=O)NCC(=O)O)[C@@H](NC(=O)c4ccccc4)c4ccccc4)C(C)=C1C3(C)C)[C@]1(OC(C)=O)CO[C@@H]1C[C@@H]2O (stereo partly drawn)	> 60	10.1	150	400		
CC(=O)O[C@H]1C(=O)[C@@]2(C)[C@H]([C@H](OC(=O)c3ccccc3)[C@]3(O)C[C@H](OC(=O)[C@H](OC(=O)C(C)(C)CCSSc4ccccn4)[C@@H](NC(=O)c4ccccc4)c4ccccc4)C(C)=C1C3(C)C)[C@]1(OC(C)=O)CO[C@@H]1C[C@@H]2O	4	6.2	125	200		
